Laboratory results as given in ChEMBL document CHEMBL1201862, “PubChem BioAssay data set” (2004).
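Cultured in 96-well plates, cells were exposed to test compound for 48 hours across five concentrations. GI50: concentration for 50% inhibition of growth.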 Active and inactive are the calls of the source. Cut-off read from the data, not from the text of the source: active = GI50 up to about 1.1 µM and inactive = higher.

Legend:
Test in all cases: inhibition of tumour cell growth, NCI panel, 48 h
RXF 631 = system: RXF 631
SW-620 = system: SW-620
RPMI-8226 = system: RPMI-8226
RXF 393 = system: RXF 393
HCC 2998 = system: HCC 2998
K562 = system: K562
SF-539 = system: SF-539
SNB-75 = system: SNB-75
EKVX = system: EKVX
UO-31 = system: UO-31
A498 = system: A498
DLD-1 = system: DLD-1
LXFL 529 = system: LXFL 529
SK-MEL-28 = system: SK-MEL-28
M14 = system: M14
OVCAR-8 = system: OVCAR-8
NCI-H522 = system: NCI-H522
SK-MEL-5 = system: SK-MEL-5
HOP-92 = system: HOP-92
TK-10 = system: TK-10
LOX IMVI = system: LOX IMVI
HL-60 = system: HL-60
Malme-3M = system: Malme-3M
MOLT-4 = system: MOLT-4
SK-OV-3 = system: SK-OV-3
786-0 = system: 786-0
UACC-257 = system: UACC-257
A549 = system: A549
CCRF-CEM = system: CCRF-CEM
IGROV-1 = system: IGROV-1
NCI-H460 = system: NCI-H460
HOP-18 = system: HOP-18
OVCAR-3 = system: OVCAR-3
HCT-116 = system: HCT-116
HT-29 = system: HT-29
SN12C = system: SN12C
COLO 205 = system: COLO 205
HCT-15 = system: HCT-15
SK-MEL-2 = system: SK-MEL-2
SNB-19 = system: SNB-19
HOP-62 = system: HOP-62
OVCAR-4 = system: OVCAR-4
NCI-H226 = system: NCI-H226
DMS-273 = system: DMS-273
UACC-62 = system: UACC-62
U-251 = system: U-251
KM12 = system: KM12
KM-20L2 = system: KM-20L2
CAKI-1 = system: CAKI-1
OVCAR-5 = system: OVCAR-5
ACHN = system: ACHN
DMS-114 = system: DMS-114
SNB-78 = system: SNB-78
SF-268 = system: SF-268
NCI-H23 = system: NCI-H23

In the case of `CCOc1ccccc1NC(=O)C(=O)C(C(=O)c1ccc2ccccc2c1)C1OC(=O)c2ccccc21` (stereo not given), the GI50 (RXF 631) is reported as 6.18 µM (inactive), the GI50 (SW-620) is reported as 6.31 µM (inactive) and the GI50 (RPMI-8226) is reported as 6.08 µM (inactive). For the same compound, the GI50 (RXF 393) was 2.26 µM (inactive), the GI50 (HCC 2998) was 10.7 µM (inactive) and the GI50 (K562) was 17.1 µM (inactive). For the same compound, the GI50 (SF-539) was 7.08 µM (inactive), the GI50 (SNB-75) was 8.77 µM (inactive) and the GI50 (EKVX) was 22.2 µM (inactive). The GI50 (UO-31) was 12.7 µM (inactive), the GI50 (A498) was 14.3 µM (inactive) and the GI50 (DLD-1) was 15.2 µM (inactive). For the same compound, the GI50 (LXFL 529) was 5.21 µM (inactive), the GI50 (SK-MEL-28) was 10.4 µM (inactive) and the GI50 (M14) was 15.9 µM (inactive). The GI50 (OVCAR-8) was 8.49 µM (inactive), the GI50 (NCI-H522) was 11.8 µM (inactive) and the GI50 (SK-MEL-5) was 10.6 µM (inactive). The GI50 (HOP-92) was 10.5 µM (inactive), the GI50 (TK-10) was 24.4 µM (inactive) and the GI50 (LOX IMVI) was 12.5 µM (inactive). For the same compound, the GI50 (HL-60) was 10 µM (inactive), the GI50 (Malme-3M) was 14.3 µM (inactive) and the GI50 (MOLT-4) was 3.37 µM (inactive). The GI50 (SK-OV-3) was 15.4 µM (inactive), the GI50 (786-0) was 7.78 µM (inactive) and the GI50 (UACC-257) was 13.7 µM (inactive). The GI50 (A549) was 21.4 µM (inactive), the GI50 (CCRF-CEM) was 8.22 µM (inactive) and the GI50 (IGROV-1) was 13 µM (inactive). The GI50 (NCI-H460) was 6.68 µM (inactive), the GI50 (HOP-18) was 16.6 µM (inactive) and the GI50 (OVCAR-3) was 12.7 µM (inactive). The GI50 (HCT-116) was 9.2 µM (inactive), the GI50 (HT-29) was 28.6 µM (inactive) and the GI50 (SN12C) was 15.5 µM (inactive). For the same compound, the GI50 (COLO 205) was 14.8 µM (inactive), the GI50 (HCT-15) was 14.2 µM and the GI50 (SK-MEL-2) was 13.2 µM (inactive). The GI50 (SNB-19) was 4.53 µM (inactive), the GI50 (HOP-62) was 13.4 µM (inactive) and the GI50 (OVCAR-4) was 4.61 µM (inactive). For the same compound, the GI50 (NCI-H226) was 1.82 µM (inactive), the GI50 (DMS-273) was 12.3 µM (inactive) and the GI50 (UACC-62) was 8.77 µM (inactive). The GI50 (U-251) was 6.64 µM (inactive), the GI50 (KM12) was 20.8 µM (inactive) and the GI50 (KM-20L2) was 28.3 µM (inactive). For the same compound, the GI50 (CAKI-1) was 10.4 µM (inactive), the GI50 (OVCAR-5) was 21.2 µM (inactive) and the GI50 (ACHN) was 29.2 µM (inactive). The GI50 (DMS-114) was 9.62 µM (inactive), the GI50 (SNB-78) was 11.6 µM (inactive) and the GI50 (SF-268) was 5.86 µM (inactive). The GI50 (NCI-H23) was 7.64 µM (inactive).
